In this test the test system is BALB/c mice. In words: cutaneous hypersensitivity test (CH test), oxazolone-induced ear swelling. Type of test: in vivo. The following applies: Mus musculus, ip, 192 h; female BALB/c mice, intraperitoneal, daily from sensitisation for 8 days; lowest dose used with 20% or greater significant (p <0.05) reduction in ear swelling in two out of three CH tests; read-out: Minimum Effective Dose. As to the method: This test was carried out in the following way.
Female BALB/c mice, weight range 16-24 g, were used in groups of eight. The abdomen of each mouse was shaved and 20 µl of a solution of a sensitising agent, 5% w/v 4-ethoxymethylene-2-phenyl-2-oxazolin-5-one (oxazolone) in acetone:ethanol (1:1 by volume), was applied to the shaved area. Immediately after sensitisation, the test compound in one of the dosages listed below was injected intraperitoneally as a suspension in 1.5% v/v sorbitan esters, under the trade name Tween 80, in sterile water (100 µl). 100 µl of the same suspension was injected likewise every 24 hours for a further 7 days. The dosages used were selected from the following values: 50, 30, 10, 3, 1, 0.3, 0.1, 0.03 or 0.01 mg/kg.
Two groups of eight BALB/c mice were used as a control simultaneously with each test in a similar manner to that described above except that no test compound was included in the daily injections.
On the seventh day after sensitisation, 10 µl of a solution of 1% w/v oxazolone in acetone: olive oil (either 1:1 or 3:1 by volume) was applied to one ear (the challenged ear) of each of the test mice and the control mice. After 24 hours the thickness of the challenged ear and the thickness of the non-challenged ear of the same animal were measured with an engineer's screw gauge micrometer. The difference in thickness between the challenged ear and the non-challenged ear in each animal is a measure of the response of that animal to oxazolone. A comparison between the response of mice treated with the test compound and mice treated with the control indicates the effectiveness of the test compound as an immunomodulatory agent. The compounds were considered to be active at a particular dose if a 20% or greater reduction in ear swelling, which was statistically significant (p <0.05) according to Dunnett's test, between treated and control groups was obtained in two out of three CH tests, (or, where more than three tests have been carried out, a majority of the tests) at that dose (see for example Int. Arch. Allergy, 38, p246-259 (1970)).
Each of the compounds of formula I illustrated in Table A below was active at 50 mg/kg in two out of three tests at 50 mg/kg unless indicated otherwise (see Notes following the Table). The minimum effective dose (ie the lowest dose of those used at which the compound is active as defined above) for each compound is given in Table A. The Example (Ex) number or numbers listed adjacent to each compound indicates the process or processes illustrating the preparation of that compound in the Examples.

In the case of `CC12CSc3ccccc3C1=NN(c1ccc(F)cc1)C2=O` (stereo not drawn) [Example 12, 2-(4-fluorophenyl)-3a-methyl-3a,4-dihydro[1]benzothiopyrano[4,3-c]-pyrazol-3(2H)-one], the minimal effective dose was 50 mg/kg.

As for `CC12CSc3ccc(Cl)cc3C1=NN(c1ccc(Cl)c(Cl)c1)C2=O` (stereo not drawn) [Example 15, 8-chloro-2-(3,4-dichlorophenyl)-3a-methyl-3a,4-dihydro[1]benzothio-pyrano[4,3-c]pyrazol-3(2H)-one], the minimal effective dose worked out at 50 mg/kg. The value for `CC12CSc3ccccc3C1=NN(c1ccc(Cl)cc1)C2=O` (stereo not drawn) [Example 11/ 23, 2-(4-chlorophenyl)-3a-methyl-3a,4-dihydro[1]benzothiopyrano[4,3-c]-pyrazol-3(2H)-one] was 3 mg/kg; that for `CC12CSc3ccccc3C1=NN(c1ccc(F)c(Cl)c1)C2=O` (stereo not drawn) [Example 18, 2-(3-chloro-4-fluorophenyl)-3a-methyl-3a,4-dihydro[1]benzothiopyrano[4,3-c]-pyrazol-3(2H)-one] was 3 mg/kg. For `Cc1sc2ccccc2c2nn(-c3ccc(Br)cc3)c(=O)c1-2` [Example 39, 2-(4-bromophenyl)-4-methyl[1]benzo-thiopyrano[4,3-c]pyrazol-3(2H)-one], the minimal effective dose came to 50 mg/kg. Take `CCC1Sc2ccccc2-c2[nH]n(-c3ccc(Cl)cc3)c(=O)c21` (stereo not drawn) [Example 28, 2-(4-chlorophenyl)-4-ethyl-1,4-dihydro[1]benzothiopyrano[4,3-c]-pyrazol-3(2H)-one]: the minimal effective dose came out at 50 mg/kg. `CC1Sc2ccccc2-c2[nH]n(-c3ccc(Cl)c(Cl)c3)c(=O)c21` (stereo not drawn) [Example 26, 2-(3,4-dichlorophenyl)-4-methyl-1,4-dihydro[1]benzothiopyrano[4,3-c]-pyrazol-3(2H)-one]: the minimal effective dose was 50 mg/kg.

As for `CC12CSc3ccccc3C1=NN(c1ccc(Cl)c(Cl)c1)C2=O` (stereo not drawn) [Example 13/ 24, 2-(3,4-dichlorophenyl)-3a-methyl-3a,4-dihydro[1]benzothiopyrano-[4,3-c]pyrazol-3(2H)-one], the minimal effective dose was determined as 0.3 mg/kg. As to `CC1Sc2ccccc2-c2[nH]n(-c3ccc(F)cc3)c(=O)c21` (stereo not drawn) [Example 27, 2-(4-fluorophenyl)-4-methyl-1,4-dihydro[1]benzothiopyrano[4,3-c]-pyrazol-3(2H)-one], the minimal effective dose was determined as 50 mg/kg. The value for `CC12CSc3ccccc3C1=NN(c1ccc(Br)c(Cl)c1)C2=O` (stereo not drawn) [Example 17, 2-(4-bromo-3-chlorophenyl)-3a-methyl-3a,4-dihydro[1]benzothiopyrano[4,3-c]-pyrazol-3(2H)-one] was 0.3 mg/kg; that for `CC12CSc3ccc(F)cc3C1=NN(c1ccc(Cl)cc1)C2=O` (stereo not drawn) [Example 22, 2-(4-chlorophenyl)-8-fluoro-3a-methyl-3a,4-dihydro[1]benzothiopyrano[4,3-c]-pyrazol-3(2H)-one] was 50 mg/kg. To `CC1Sc2ccccc2-c2[nH]n(-c3ccc(Br)cc3)c(=O)c21` (stereo not drawn) [Example 30, 2-(4-bromophenyl)-4-methyl-1,4-dihydro[1]benzothiopyrano[4,3-c]-pyrazol-3(2H)-one] belongs 3 mg/kg; to `CCc1sc2ccccc2c2nn(-c3ccc(Cl)cc3)c(=O)c1-2` [Example 37, 2-(4-chlorophenyl)-4-ethyl[1]benzo-thiopyrano[4,3-c]pyrazol-3(2H)-one], 50 mg/kg. The value for `Cc1sc2ccccc2c2nn(-c3ccc(F)cc3)c(=O)c1-2` [Example 36, 2-(4-fluorophenyl)-4-methyl[1]benzo-thiopyrano[4,3-c]pyrazol-3(2H)-one] was 10 mg/kg. In the case of `CC12CSc3ccccc3C1=NN(c1cccc(Cl)c1)C2=O` (stereo not drawn) [Example 14, 2-(3-chlorophenyl)-3a-methyl-3a,4-dihydro[1]benzothiopyrano[4,3-c]-pyrazol-3(2H)-one], the minimal effective dose is 3 mg/kg. With `CC12CSc3ccccc3C1=NN(c1ccc(C(F)(F)F)cc1)C2=O` (stereo not drawn) [Example 16, 3a-methyl-2-(4-trifluoromethylphenyl)-3a,4-dihydro[1]benzothiopyrano-[4,3-c]pyrazol-3(2H)-one], the minimal effective dose came to 0.3 mg/kg.

As to `COc1ccc(-n2nc3c4ccccc4sc(C)c-3c2=O)cc1` [Example 40, 2-(4-methoxyphenyl)-4-methyl[1]benzo-thiopyrano[4,3-c]pyrazol-3(2H)-one], the minimal effective dose came out at 50 mg/kg. The value for `Cc1sc2ccccc2c2nn(-c3cccc(Cl)c3)c(=O)c1-2` [Example 42, 2-(3-chlorophenyl)-4-methyl[1]benzo-thiopyrano[4,3-c]pyrazol-3(2H)-one] was 50 mg/kg; that for `CSc1ccc(N2N=C3c4ccccc4SCC3(C)C2=O)cc1` (stereo not drawn) [Example 21, 3a-methyl-2-(4-methylthiophenyl)-3a,4-dihydro[1]benzothiopyrano[4,3-c]-pyrazol-3(2H)-one] was 50 mg/kg. To `Cc1sc2ccccc2c2nn(-c3ccc(C(F)(F)F)cc3)c(=O)c1-2` [Example 38, 4-methyl-2-(4-trifluoromethyl-phenyl)[1]benzothiopyrano[4,3-c]-pyrazol-3(2H)-one] belongs 0.3 mg/kg; to `Cc1sc2ccccc2c2nn(-c3ccc(Cl)cc3)c(=O)c1-2` [Example 35, 2-(4-chlorophenyl)-4-methyl[1]-benzothiopyrano[4,3-c]pyrazol-3(2H)-one], 10 mg/kg; to `CC1Sc2ccccc2-c2[nH]n(-c3ccc(C(F)(F)F)cc3)c(=O)c21` (stereo not drawn) [Example 29/ 34/ 44, 4-methyl-2-(4-trifluoromethylphenyl)-1,4-dihydro[1]benzothiopyrano[4,3-c]-pyrazol-3(2H)-one], 3 mg/kg. To `Cc1ccc(N2N=C3c4ccccc4SCC3(C)C2=O)cc1Cl` (stereo not drawn) [Example 19, 2-(3-chloro-4-methylphenyl)-3a-methyl-3a,4-dihydro[1]benzothiopyrano[4,3-c]-pyrazol-3(2H)-one] belongs 3 mg/kg.

Consider `Cc1sc2ccccc2c2nn(-c3ccc(Cl)c(Cl)c3)c(=O)c1-2` [Example 43, 2-(3,4-dichlorophenyl)-4-methyl[1]-benzothiopyrano[4,3-c]pyrazol-3(2H)-one], for which the minimal effective dose turned out to be 3 mg/kg. As for `Cc1ccc2sc(C)c3c(=O)n(-c4ccc(Cl)cc4)nc-3c2c1` [Example 41, 2-(4-chlorophenyl)-4,8-dimethyl[1]-benzothiopyrano[4,3-c]pyrazol-3(2H)-one], the minimal effective dose turned out to be 3 mg/kg.

On to `CC12CSc3ccccc3C1=NN(c1ccc(Br)cc1)C2=O` (stereo not drawn) [Example 20, 2-(4-bromophenyl)-3a-methyl-3a,4-dihydro[1]benzothiopyrano[4,3-c]-pyrazol-3(2H)-one], for which the minimal effective dose came to 1 mg/kg.

With `CC1Sc2ccccc2-c2[nH]n(-c3ccc(Cl)cc3)c(=O)c21` (stereo not drawn) [Example 25, 2-(4-chlorophenyl)-4-methyl-1,4-dihydro[1]benzothiopyrano[4,3-c]-pyrazol-3(2H)-one], the minimal effective dose is 30 mg/kg.

Values taken from patent publication EP0354694A1, “Therapeutic [1]benzothiopyrano[4,3-c]pyrazoles” (The Boots Company PLC, priority 1988, dated 1990).
